One data set in a line: PAMPA permeability. The note with it: for Papp: PAMPA, ADME P: PAMPA permeability (class), Tables 17-19, class probably colour-coded, colour lost.
Data set [1] in a line: rat microsomal stability (RLM). The note with it: for half-life: rat, rat liver microsomes.
The next data set deals with recombinant mouse GALK1 (Mus musculus, UniProt Q9R0N0). Nature of the data set: mGALK1 biochemical activity assay (Kinase-Glo Plus, ATP depletion). In short, it runs like this:
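Recombinant GALK1 (5 nM) with 100 μM galactose; GALK1 turnover read as ATP depletion by Kinase-Glo Plus luminescence. Reaction ran 1 h at room temperature before detection reagent was added.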

The target in the next data set is T1, hGALK1m (Homo sapiens, UniProt P51570, E253A/K252A).
T1 construct: made in house; host or cells: E. coli HMS174
Briefly: in vitro hGALK1 activity assay of the structure-based optimisation (Example 12, Tables 17-20). It counts as biochemical.

A further data set addresses recombinant human GALK1 (Homo sapiens, UniProt P51570). Briefly: hGALK1 biochemical activity assay (Kinase-Glo Plus, ATP depletion). An outline of the steps: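 Recombinant human or mouse GALK1 (5 nM, with 100 μM galactose, in the added enzyme solution) was run with ATP (35 μM in the substrate solution) in HEPES pH 8.0 buffer. Compounds were tested at 11 1/3-step concentrations from 57.4 μM to 0.97 nM. After 1 h at room temperature, remaining ATP was read by Kinase-Glo Plus luminescence.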

Data set [2] is described as follows: aqueous kinetic solubility.
Where [3] appears, read: Tables 2-15, 35 μM ATP, 100 μM galactose, 1 h, bracketed figure after some values is undefined and not reported, read-out: mGALK IC50.
The mark [4] stands for this setting: recombinant mouse GALK1, Kinase-Glo Plus ATP depletion, read-out: mGALK.
Setting [5] is: Tables 18-19, read-out: Max Response (%).
Setting [6] is: Tables 18-20 and text of Example 12.
The mark [7] stands for this setting: recombinant human GALK1, Kinase-Glo Plus ATP depletion, read-out: hGALK.
Where [8] appears, read: Tables 18-19 and text of Example 12.
Where [9] appears, read: Tables 2-15, 35 μM ATP, 100 μM galactose, 1 h, bracketed figure after some values (e.g. −1.2) is undefined and not reported, read-out: hGALK IC50.

The source of these data is patent US20230158025A1 (UNIVERSITY OF UTAH RESEARCH FOUNDATION, priority 2020, published 2023).

Read-outs that look alike come from different tables or passages of the source.

recombinant mouse GALK1, sequence (Q9R0N0 whole entry): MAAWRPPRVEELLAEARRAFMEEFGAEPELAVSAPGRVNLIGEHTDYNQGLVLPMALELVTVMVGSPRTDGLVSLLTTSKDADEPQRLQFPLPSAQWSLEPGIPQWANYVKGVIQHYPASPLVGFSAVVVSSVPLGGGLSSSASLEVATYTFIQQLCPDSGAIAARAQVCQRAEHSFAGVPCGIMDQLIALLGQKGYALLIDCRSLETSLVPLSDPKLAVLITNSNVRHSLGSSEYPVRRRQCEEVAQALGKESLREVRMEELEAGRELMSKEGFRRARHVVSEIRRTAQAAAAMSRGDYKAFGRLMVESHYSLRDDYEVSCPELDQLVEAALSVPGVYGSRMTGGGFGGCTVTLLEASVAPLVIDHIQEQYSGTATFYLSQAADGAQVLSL
T1 sequence (P51570 whole entry K252A/E253A): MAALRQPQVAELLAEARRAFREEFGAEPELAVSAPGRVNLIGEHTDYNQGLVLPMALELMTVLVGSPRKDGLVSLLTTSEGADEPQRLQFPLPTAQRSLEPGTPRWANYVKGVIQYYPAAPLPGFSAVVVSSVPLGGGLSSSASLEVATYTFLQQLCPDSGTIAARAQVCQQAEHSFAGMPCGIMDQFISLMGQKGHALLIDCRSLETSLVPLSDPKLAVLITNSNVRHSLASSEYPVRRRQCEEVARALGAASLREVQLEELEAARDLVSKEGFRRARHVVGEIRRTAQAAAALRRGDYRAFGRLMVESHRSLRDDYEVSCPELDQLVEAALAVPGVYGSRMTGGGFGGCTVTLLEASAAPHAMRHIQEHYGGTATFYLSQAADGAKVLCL
recombinant human GALK1, sequence (P51570 whole entry): as the sequence (P51570 whole entry K252A/E253A) above, with A252K, A253E counted along it

Turning to `CC1=C(C(=O)Nc2cc(C(=O)O)ccn2)C(c2ccc(F)cc2Cl)N=C(Nc2nc3ccc(F)cc3o2)N1` (stereo not drawn) [Compound 45, 2-(4-(2-chloro-4-fluorophenyl)-2-((6-fluorobenzo[d]oxazol-2-yl)amino)-6-methyl-1,4-dihydropyrimidine-5-carboxamido)isonicotinic acid], the “Perm. (1 × 10^−6 cm/sec)” value in the data set “PAMPA permeability” is listed as <1 1 × 10^−6 cm/sec. The same compound had a Papp in the data set “PAMPA permeability” of under 100 nm/s. Further, in data set [1] (microsomal half-life), the “Metab. Stabil. (m)” value is reported as over 30 m. The compound also came in with a half-life in data set [1] of under 10 min. Also, the IC50 was found to be 4.32 µM on recombinant mouse GALK1 (setting [3]), 4.32 µM at recombinant mouse GALK1 (setting [4]), 0.258 µM against hGALK1m (setting [6]) and 0.86 µM on recombinant human GALK1 (setting [7]). The “change of potency versus parent compound (in words)” value (“change” below) on hGALK1m was “little effect on the potency”. The Emax on hGALK1m (setting [5]) amounted to 100%. Besides, the “Sol.” value in data set [2] was 40.6 µg/mL.
As to `CC1=C(C(=O)Nc2cc(C(=O)O)ccn2)C(c2ccc(Cl)cc2Cl)N=C(Nc2nc3ccc(F)cc3o2)N1` (stereo not drawn) [Compound 47, 2-(4-(2,4-dichlorophenyl)-2-((6-fluorobenzo[d]oxazol-2-yl)amino)-6-methyl-1,4-dihydropyrimidine-5-carboxamido)isonicotinic acid], the “Perm. (1 × 10^−6 cm/sec)” value in the data set “PAMPA permeability” is on record as <1 1 × 10^−6 cm/sec. Besides, the Papp in the data set “PAMPA permeability” is under 100 nm/s. Besides, the “Metab. Stabil. (m)” value in data set [1] (microsomal half-life) was over 30 m. In addition, in data set [1], the half-life was under 10 min. The IC50 at recombinant mouse GALK1 (setting [3]) came out at 3.85 µM; on recombinant mouse GALK1 (setting [4]), 3.85 µM; against hGALK1m (setting [6]) it was 0.345 µM; on recombinant human GALK1 (setting [7]), 1.09 µM. The “change” value on hGALK1m is recorded as “little effect on the potency”. Besides, at hGALK1m (setting [5]), the Emax was 85%. The “Sol.” value in data set [2] was under 1 µg/mL.
Regarding `CC1=C(C(=O)Nc2cc(C(=O)O)ccn2)C(c2cccc(Cl)c2Cl)N=C(Nc2nc3ccc(F)cc3o2)N1` (stereo not drawn) [Compound 49, 2-(4-(2,3-dichlorophenyl)-2-((6-fluorobenzo[d]oxazol-2-yl)amino)-6-methyl-1,4-dihydropyrimidine-5-carboxamido)isonicotinic acid], in “PAMPA permeability”, the Papp is under 100 nm/s. In addition, in data set [1] (microsomal half-life), the “Metab. Stabil. (m)” value is recorded as over 30 m. This compound displayed a half-life in data set [1] of under 10 min. Moreover, the IC50 was 21.7 µM at recombinant mouse GALK1 (setting [3]); 21.7 µM on recombinant mouse GALK1 (setting [4]); 3.6 µM against hGALK1m (setting [8]); 8.63 µM on recombinant human GALK1 (setting [9]); 8.63 µM at recombinant human GALK1 (setting [7]). At hGALK1m, the “change” value is listed as “compromised the potency”. For the same compound, the Emax at hGALK1m (setting [5]) came to 100%. Besides, the “Sol.” value in data set [2] was 55.5 µg/mL.
Turning to `CC1=C(C(=O)Nc2cc(C(=O)O)ccn2)C(c2cccc(C(F)(F)F)c2Cl)N=C(Nc2nc3ccc(F)cc3o2)N1` (stereo not drawn) [Compound 51, 2-(4-(2-chloro-3-(trifluoromethyl)phenyl)-2-((6-fluorobenzo[d]oxazol-2-yl)amino)-6-methyl-1,4-dihydropyrimidine-5-carboxamido)isonicotinic acid], the Papp in the data set “PAMPA permeability” was under 100 nm/s. Besides, the “Metab. Stabil. (m)” value in data set [1] (microsomal half-life) is recorded as over 30 m. Moreover, the half-life in data set [1] is under 10 min. The IC50 at recombinant mouse GALK1 (setting [3]) stood at 27.3 µM; at recombinant mouse GALK1 (setting [4]), 27.3 µM; at hGALK1m (setting [8]), 2.4 µM; at recombinant human GALK1 (setting [9]), 19.3 µM; on recombinant human GALK1 (setting [7]), 19.3 µM. Besides, on hGALK1m, the “change” value was “compromised the potency”. For the same compound, the Emax at hGALK1m (setting [5]) came out at 97%. For the same compound, the “Sol.” value in data set [2] amounted to 70.1 µg/mL.
With `COc1cccc(C2N=C(Nc3nc4ccc(F)cc4o3)NC(C)=C2C(=O)Nc2cc(C(=O)O)ccn2)c1Cl` (stereo not drawn) [Compound 52, 2-(4-(2-chloro-3-methoxyphenyl)-2-((6-fluorobenzo[d]oxazol-2-yl)amino)-6-methyl-1,4-dihydropyrimidine-5-carboxamido)isonicotinic acid], the “Perm. (1 × 10^−6 cm/sec)” value in “PAMPA permeability” is given as <1 1 × 10^−6 cm/sec. Also, in the data set “PAMPA permeability”, the Papp is under 100 nm/s. In addition, the “Metab. Stabil. (m)” value in data set [1] (microsomal half-life) is reported as over 30 m. In data set [1], this compound came in with a half-life of under 10 min. Moreover, the IC50 at recombinant mouse GALK1 (setting [3]) worked out at 19.3 µM; on recombinant mouse GALK1 (setting [4]) it was 19.3 µM; against hGALK1m (setting [8]), 5.4 µM; at recombinant human GALK1 (setting [9]) it was 6.85 µM; on recombinant human GALK1 (setting [7]), 6.85 µM. For the same compound, the Emax at hGALK1m (setting [5]) stood at 100%. In addition, in data set [2], the “Sol.” value is over 81 µg/mL.
In turn, `CC1=C(C(=O)Nc2cc(C(=O)O)ccn2)C(c2ccccc2Br)N=C(Nc2nc3ccc(F)cc3o2)N1` (stereo not drawn) [Compound 75, 2-(4-(2-bromophenyl)-2-((6-fluorobenzo[d]oxazol-2-yl)amino)-6-methyl-1,4-dihydropyrimidine-5-carboxamido)isonicotinic acid] registered a Papp in the data set “PAMPA permeability” of under 100 nm/s. In addition, the “Metab. Stabil. (m)” value in data set [1] (microsomal half-life) is over 30 m. In data set [1], this compound came in with a half-life of under 10 min. Besides, the IC50 came out at 3.85 µM at recombinant mouse GALK1 (setting [3]), 3.85 µM at recombinant mouse GALK1 (setting [4]), 0.235 µM against hGALK1m (setting [6]) and 0.54 µM at recombinant human GALK1 (setting [9]). On hGALK1m, the “change” value was “little impact on the potency”. Moreover, the Emax at hGALK1m (setting [5]) came out at 100%. Moreover, the “Sol.” value in data set [2] turned out to be 36.0 µg/mL.
Regarding `CC1=C(C(=O)Nc2cc(C(=O)O)ccn2)C(c2cccc(C(N)=O)c2)N=C(Nc2nc3ccc(F)cc3o2)N1` (stereo not drawn) [Compound 76, 2-(4-(3-carbamoylphenyl)-2-((6-fluorobenzo[d]oxazol-2-yl)amino)-6-methyl-1,4-dihydropyrimidine-5-carboxamido)isonicotinic acid], the “Perm. (1 × 10^−6 cm/sec)” value in “PAMPA permeability” is <1 1 × 10^−6 cm/sec. This compound displayed a Papp in “PAMPA permeability” of under 100 nm/s. In data set [1] (microsomal half-life), the “Metab. Stabil. (m)” value is reported as over 30 m. For the same compound, in data set [1], the half-life is under 10 min. Also, the IC50 at recombinant mouse GALK1 (setting [3]) was found to be 21.7 µM; on recombinant mouse GALK1 (setting [4]), 21.7 µM; at hGALK1m (setting [8]) it was 3.8 µM; on recombinant human GALK1 (setting [9]), 7.69 µM; on recombinant human GALK1 (setting [7]), 7.69 µM. The “change” value at hGALK1m is “significantly impaired the potency”. For the same compound, the Emax at hGALK1m (setting [5]) was 90%. Moreover, the “Sol.” value in data set [2] was over 78 µg/mL.
Consider `CC1=C(C(=O)Nc2cc(C(=O)O)ccn2)C(c2cccc(C(F)(F)F)c2)N=C(Nc2nc3ccc(F)cc3o2)N1` (stereo not drawn) [Compound 77, 2-(2-((6-fluorobenzo[d]oxazol-2-yl)amino)-6-methyl-4-(3-(trifluoromethyl)phenyl)-1,4-dihydropyrimidine-5-carboxamido)isonicotinic acid], for which the “Perm. (1 × 10^−6 cm/sec)” value in “PAMPA permeability” is on record as <1 1 × 10^−6 cm/sec. In “PAMPA permeability”, this compound came in with a Papp of under 100 nm/s. Moreover, the “Metab. Stabil. (m)” value in data set [1] (microsomal half-life) is on record as over 30 m. The compound also yielded a half-life in data set [1] of under 10 min. The “mGALK IC50” value on recombinant mouse GALK1 (Tables 2-15, 35 μM ATP, 100 μM galactose, 1 h, bracketed figure after some values is undefined and not reported) is “inactive”. The “mGALK (μM)” value at recombinant mouse GALK1 (recombinant mouse GALK1, Kinase-Glo Plus ATP depletion) is on record as “in- active”. Further, the “change” value on hGALK1m is on record as “compromised the potency”. Moreover, on hGALK1m (setting [5]), the Emax was found to be 90%. For the same compound, the IC50 against hGALK1m (setting [8]) was over 15 µM; at recombinant human GALK1 (setting [9]) it was 19.3 µM; on recombinant human GALK1 (setting [7]) it was 19.3 µM. The “Sol.” value in data set [2] came to 60.1 µg/mL.
The compound `CC1=C(C(=O)Nc2cc(C(=O)O)ccn2)C(c2cccc(S(N)(=O)=O)c2)N=C(Nc2nc3ccc(F)cc3o2)N1` (stereo not drawn) [Compound 78, 2-(2-((6-fluorobenzo[d]oxazol-2-yl)amino)-6-methyl-4-(3-sulfamoylphenyl)-1,4-dihydropyrimidine-5-carboxamido)isonicotinic acid] gave a Papp in “PAMPA permeability” of under 100 nm/s. In data set [1] (microsomal half-life), the “Metab. Stabil. (m)” value is reported as over 30 m. Further, in data set [1], the half-life was under 10 min. Also, the IC50 is 38.5 µM at recombinant mouse GALK1 (setting [3]); 38.5 µM at recombinant mouse GALK1 (setting [4]); over 15 µM against hGALK1m (setting [8]); 17.2 µM at recombinant human GALK1 (setting [9]); 17.2 µM on recombinant human GALK1 (setting [7]). Moreover, the “change” value on hGALK1m was “significantly impaired the potency”. For the same compound, the Emax at hGALK1m (setting [5]) amounted to 75%. Besides, in data set [2], the “Sol.” value is over 84 µg/mL.
The compound `CC1=C(C(=O)Nc2ccccc2)C(c2ccccc2Cl)N=C(Nc2nc3ccccc3o2)N1` (stereo not drawn) [Compound 137, 2-(benzo[d]oxazol-2-ylamino)-4-(2-chlorophenyl)-6-methyl-N-phenyl-1,4-dihydropyrimidine-5-carboxamide] came in with a Papp in the data set “PAMPA permeability” of under 100 nm/s. Besides, the “Metab. Stabil. (m)” value in data set [1] (microsomal stability half-life) amounted to 24 m. The compound also displayed a half-life in data set [1] of under 10 min. The IC50 on recombinant mouse GALK1 (setting [3]) worked out at 13.7 µM; on recombinant mouse GALK1 (setting [4]), 13.7 µM; at hGALK1m (Table 17, amide group optimization, no unit in table) it was 6.9 µM; on hGALK1m (setting [8]) it was 0.97 µM; at recombinant human GALK1 (setting [9]) it was 10.9 µM. Besides, the Emax on hGALK1m (1 h, Table 17, read-out: Efficacy) stood at 57%; on hGALK1m (setting [5]) it was 100%. Besides, the “Sol.” value in data set [2] (aqueous kinetic solubility) was under 1 µg/mL.
